These results are taken from PMC4876117, “Functional Dissection of the Bipartite Active Site of the Class I Coenzyme A (CoA)-Transferase Succinyl-CoA:Acetate CoA-Transferase” (Frontiers in Chemistry, 2016).

Test [1] deals with T1, AarC (AarCH6) (Acetobacter aceti, UniProt B3EY95).
T1 construct: C-terminal hexahistidine tag kept, plasmid pJK385 (N347A: pJK524), expressed in E. coli C41(DE3) pREP4-groESL, homodimer
As to the kind of experiment: X-ray crystallography (co-crystal). The test is classed as binding. The settings on record: sodium citrate, imidazole pH 8.2, 22 °C.

Test [2] has as its target T2, AarC (AarCH6) (Acetobacter aceti, UniProt B3EY95, N347A).
T2 construct: C-terminal hexahistidine tag kept, plasmid pJK385 (N347A: pJK524), expressed in E. coli C41(DE3) pREP4-groESL, homodimer
As to the kind of experiment: X-ray crystallography (co-crystal). The test is classed as binding. The settings on record: 10 mM CoA, sodium citrate, imidazole pH 8.2, 22 °C; 2.13 Å; active site.

T2 sequence (B3EY95 whole entry N347A): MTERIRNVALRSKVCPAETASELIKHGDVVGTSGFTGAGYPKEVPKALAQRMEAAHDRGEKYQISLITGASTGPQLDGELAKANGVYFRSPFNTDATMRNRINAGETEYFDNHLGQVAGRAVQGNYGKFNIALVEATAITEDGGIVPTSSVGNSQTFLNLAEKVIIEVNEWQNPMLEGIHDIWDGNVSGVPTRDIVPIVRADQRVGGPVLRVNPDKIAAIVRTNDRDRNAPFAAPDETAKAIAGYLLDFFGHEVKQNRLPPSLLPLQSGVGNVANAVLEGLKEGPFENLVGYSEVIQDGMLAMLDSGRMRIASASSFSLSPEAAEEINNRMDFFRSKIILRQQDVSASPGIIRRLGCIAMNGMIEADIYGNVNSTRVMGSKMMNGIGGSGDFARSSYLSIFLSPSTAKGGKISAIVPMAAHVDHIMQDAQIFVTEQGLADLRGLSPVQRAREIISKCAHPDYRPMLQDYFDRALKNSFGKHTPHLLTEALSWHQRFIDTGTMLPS

As to `CC(=O)O` [acetate], at AarC (AarCH6) [1] (1-50 mM sodium acetate, 1.62 Å, three sites per subunit, the first near the active site, also in 5dw6 with 2a), the “X-ray crystallography (co-crystal)” value is “The final model contained three acetate binding sites in each subunit”. On to `CC(C)(COP(=O)(O)OP(=O)(O)OC[C@H]1O[C@@H](n2cnc3c(N)ncnc32)[C@H](O)[C@@H]1OP(=O)(O)O)[C@@H](O)C(=O)NCCC(=O)NCCS` [CoA], for which the “X-ray crystallography (co-crystal)” value at AarC (AarCH6) [2] is “The B subunits of AarC-N347A (PDB entry 5ddk, white carbon atoms)”. In the case of `CCCNC(=O)CCNC(=O)[C@H](O)C(C)(C)COP(=O)(O)OP(=O)(O)OC[C@H]1O[C@@H](n2cnc3c(N)ncnc32)[C@H](O)[C@@H]1OP(=O)(O)O` [2a, 3′-phosphoadenosine 5′-(O-(N-propyl-R-pantothenamide))pyrophosphate], the “X-ray crystallography (co-crystal)” value on AarC (AarCH6) [1] (1-3 mM 2a, 1.66 Å, active site, 5dw6 is the complex with added acetate (1.55 Å)) was “The AarC•2a complex (PDB entry 5dw5) contained three chloride ions”.
